# Legend:
# [1] = tested on: T2 cells loaded with individual peptides; test: 51Cr Release Assay for activity of CTL generated with peptide-loaded Drosophila aAPC; assay type: cell-based, human; conditions: for Induction of CTL in two normal donors: Donor 1 and Donor 2, FIG. 3 and FIG. 4; for CTL Activities Strong: number of donors that elicited Strong activity over total number of donors; for CTL Activities Strong / CTL Activities Weak / CTL Activities None: T2 targets loaded with individual peptide; for CTL Activities Weak: number of donors that elicited Weak activity over total number of donors; for CTL Activities None: number of donors that elicited no activity over total number of donors
# Procedure: Drosophila aAPC were generated from Schneider S2 cells (S2 cells), which were originally established in 1969 from several hundred Oregon-R (wild type) Drosophila melanogaster (Oregon-R) embryos (American Type Culture Collection (ATCC) CRL-1963) according to published procedures (Schneider, J. Embryol. Exp. Morph. 1972 Vol 27, pp. 353-365), and deposited in the ATCC(CRL10974). S2 cells are grown in commercial Schneider's Drosophila medium supplemented with 10% heat-inactivated fetal bovine serum. In order to generate aAPCs, human complementary DNAs (cDNAs) for HLA-A2.1, B7.1, LFA-3, ICAM-1 and CD70, were individually inserted into the pRmHa-3 vector and S2 cells were transfected using the calcium phosphate precipitation method with a mixture of HLA-A2.1, B7.1, LFA-3, ICAM-1 and CD70 plasmid DNAs (for aAPC clone 1120) and the phshneo plasmid. (see U.S. Pat. No. 6,225,042 regarding construction and use of pRMHa plasmid vectors). The human cDNAs were prepared using standard techniques by reverse transcription-PCR using primers derived from the published sequences for HLA-A2.1 from K562 cells, B7.1 from K562 cells, LFA-3 from HL60 cells, ICAM-1 from K562 cells, and CD70 from HLA-A2.1+LCL cells. K562 cells are a human erythroleukemic cell line, HL60 cells are a promyelocytic leukemia human cell line, and HLA-A2.1+LCL cells are an Epstein-Barr virus (EBV)-transformed lymphoblastoid cell line (LCL). Stably transfected cells were selected by culturing in Schneider's medium containing geneticin. Prior to scale up of the cells, expression of the transfected genes is induced by the addition of CuSO4. The level of expression is assessed by flow cytometry using anti-HLA-A2.1, anti-B7.1, anti-LFA-3, anti-ICAM-1 and CD70 antibodies. For efficient in vitro activation of the CD8+ lymphocytes, greater than 30% of the Drosophila cells must express the HLA-A2.1 molecule. The Drosophila cells regularly express each of the molecules at levels between 70-90%. Drosophila aAPC were washed and then incubated at RT for 4 hours with 10 μM of different combinations of mixed peptides or individual peptides (See e.g. U.S. Pat. Nos. 6,225,042, 6,355,479, 6,362,001 and 6,790,662; U.S. Patent Application Publication Nos. 2009/0017000 and 2009/0004142; and International Publication No. WO2007/103009). Purified human CD8+ T cells from HLA-A2 positive donors were then incubated with peptide-loaded Drosophila APC at 37° C., 5% CO2, for 5 days. Human IL-2 (20 U/ml, R&D Systems) and IL-7 (30 U/ml, R&D Systems) were added at day 5 and the activated CD8+ T cells (CTL) were re-stimulated twice, at day 7 and day 15, with non-CD8 adherent cells in a total peripheral blood mononuclear cell (PBMC) preparation from the same donor in the presence of peptides.
# A number of different CTL were generated using CD8+ T cells from different donors and different combinations of mixed peptides, including combinations that contained only one peptide. For example, 24 selected peptides were mixed or used individually to create different combinations of peptide mixtures (PM) or individual peptides (P5 and P14) and produce peptide-loaded Drosophila APC. The resulting peptide-loaded Drosophila APC were incubated with CD8+ T cells from 2 different donors (Donor 1 and Donor 2) to produce 11 different batches of CTL (Donor 1: PM1, PM2, PM3, PM4, and P14; Donor 2: PM1, PM2, PM3, PM4, P5, and P14) (Table 3).
# CTL (Effector) activity was measured with a standard chromium (^51Cr) release assay, with T2 cells (Target) loaded with individual peptides and also with a number of tumor cell lines as target cells (Brunner et al., Immunology. 1968 February; 14(2):181-96). The highest Effector (E) Target (T) ratio (E/T) was 50:1, with 1:5 serial dilutions of CTL (Effector) used to produce a dose response. Before the assay, Target cells (T2 cells at 3×10^6 cells/100 ul in 1×PBS with 4% FCS) were labeled by adding 100 ul of ^51Cr (Perkin Elmer) and incubating at 37° C. for 1 hour. […]
# [2] = biological target: T1, HLA-A2 molecules in T2 cells (Homo sapiens, UniProt P04439, D140Y/D185E/D98H/E176V/E277Q/G131W/G231S/I119V/I121R/I166T/I218V/L300P/L318F/N151K/N90K/P208A/P217A/Q86G/Q94H/R138H/R169H/T345S); test: HLA-A2 Stabilization Assay (peptide binding, T2 cells, flow cytometry); design: key: Strong (S); Median (M); Weak (W); None (N)
# T1 construct: HLA-A2 molecules that are synthesized in a transporter associated with antigen processing (TAP)-deficient cell line, T2; host or cells: T2 cells (TAP-deficient human cell line)
# From the text: The assay for peptide binding to class I major histocompatibility complex (MHC/HLA-A2) molecules is based on the ability of peptides to stabilize MHC class I, HLA-A2 molecules that are synthesized in a transporter associated with antigen processing (TAP)-deficient cell line, T2 (ATCC® Number: CRL-1992). The extent of stabilization of MHC class I molecules is directly related to the binding affinity of the added peptides (Townsend et al., Cell. 1990 Jul. 27; 62(2):285-95; Andersen et al., Tissue Antigens. 1999 August; 54(2):185-90).
# For the assay, T2 cells were plated in 96-well V-bottom plates, 100 ul/well RPMI media, at a density of 1×10^6 cells/ml, with final peptide concentrations of 200 uM, 20 uM, 2 uM, 200 nM, 20 nM, 2 nM, and no peptide as negative control. The cells with peptides were incubated for 18 hours at 26° C., 5% CO2. After 18 hours, the plates were transferred to 37° C., 5% CO2 and incubated for an additional 3 hours. The cells in plate were washed once with FACS buffer (PBS, 2.5% FCS, 1% NaN3) and then stained by adding 1 ul/well FITC-labeled mouse anti-human HLA-A2 antibody (BD Pharmingen, Cat. No. 551285), 1 ul/well PI, and then incubating at 4° C. for 30 minutes. After staining, cells were resuspended in 200 ul of FACS buffer and transferred from 96-well plates to racks of 96 microtubes. Samples were run on a FACScan flow cytometer and the data were analysed by using CellQuest software.
# A peptide of Hepatitis B Core protein (HBC) was used as a positive control. The Hepatitis B Core peptide is a potent HLA-A2.1 epitope and consists of residue numbers 18-27 of the core sequence, amino acids […] (SEQ ID NO:73) (Zhang et al. Immunology. 2007, 121(1):105-12).
# [3] = truncated versions of P3, P13, P14
Substance,"HLA-A2 Binding [2, 3]",CTL Activities None [1],other results
ALNEEAGRLLL (listed as Homo sapiens) [Peptide P15],–,1/9,Induction of CTL in two normal donors [1]: induced CTL; CTL Activities Strong [1]: 3/9; CTL Activities Weak [1]: 5/9
DLPGITRV (listed as Homo sapiens) [Peptide P14-3],N,–,–
DLPGMTK (listed as Homo sapiens) [Peptide P13-15],N,–,–
FLASESLLKGAL (listed as Homo sapiens) [Peptide P23],–,1/2,Induction of CTL in two normal donors [1]: induced CTL; CTL Activities Strong [1]: 1/2
FLLPHPGLQV (listed as Homo sapiens) [Peptide P10],–,1/2,Induction of CTL in two normal donors [1]: induced CTL; CTL Activities Strong [1]: 1/2
FMLQTYGQQL (listed as Homo sapiens) [Peptide P14-18],–,–,HLA-A2 Binding ([2]; computer predicted peptides): N
HSLDNSLSILR (listed as Homo sapiens) [Peptide P16],–,2/2,–
KLLEPVLLL (listed as Homo sapiens) [Peptide P6],–,2/3,CTL Activities Weak [1]: 1/3
KNPVLLKIL (listed as Homo sapiens) [Peptide P7],–,2/3,CTL Activities Weak [1]: 1/3
LIDLPGIT (listed as Homo sapiens) [Peptide P14-13],N,–,–
LIDLPGITRV (listed as Homo sapiens) [Peptide P14-1],N,–,–
LLGPRLVLA (listed as Homo sapiens) [Peptide P1],–,6/10,Induction of CTL in two normal donors [1]: induced CTL; CTL Activities Strong [1]: 2/10; CTL Activities Weak [1]: 2/10
LLIDDKGTIKL (listed as Homo sapiens) [Peptide P20],–,2/3,CTL Activities Weak [1]: 1/3
LLLDVAYGAVQA (listed as Homo sapiens) [Peptide P22],–,1/2,CTL Activities Strong [1]: 1/2
LLLDVPTAAVQA (listed as Homo sapiens) [Peptide P21],–,2/3,CTL Activities Strong [1]: 1/3
LLNMPPAHLK (listed as Homo sapiens) [Peptide P11],–,–,CTL Activities Strong [1]: 1/2; CTL Activities Weak [1]: 1/2
LLYQGPHNTL (listed as Homo sapiens) [Peptide P12],–,2/3,CTL Activities Weak [1]: 1/3
LNLLEL (listed as Homo sapiens) [Peptide P3-3],N,–,–
LSLDSSLSSLL (listed as Homo sapiens) [Peptide P17],–,2/10,Induction of CTL in two normal donors [1]: induced CTL; CTL Activities Strong [1]: 4/10; CTL Activities Weak [1]: 4/10
LVDLPGMT (listed as Homo sapiens) [Peptide P13-11],N,–,–
LVDLPGMTKV (listed as Homo sapiens) [Peptide P13-1],N,–,–
NLLPKLHVV (listed as Homo sapiens) [Peptide P9],–,2/2,–
RSLFLLYAL (listed as Homo sapiens) [Peptide P4],–,–,CTL Activities Weak [1]: 1/1
SLVLNL (listed as Homo sapiens) [Peptide P3-6],N,–,–
TLIDLPG (listed as Homo sapiens) [Peptide P14-9],N,–,–
TLIDLPGI (listed as Homo sapiens) [Peptide P14-8],N,–,–
TLVDLPG (listed as Homo sapiens) [Peptide P13-9],N,–,–
VLIPKLPQL (listed as Homo sapiens) [Peptide P5],–,2/3,Induction of CTL in two normal donors [1]: induced CTL; CTL Activities Weak [1]: 1/3
YLLPAIVHI (listed as Homo sapiens) [Peptide P8],–,3/3,–

# Further lines, with some results ahead:
"HLA-A2 Binding [2, 3]",Substance,CTL Activities None [1],other results
N,DLPGITR (listed as Homo sapiens) [Peptide P14-17],–,–
N,DLPGMTKV (listed as Homo sapiens) [Peptide P13-3],–,–
N,IDLPGITRV (listed as Homo sapiens) [Peptide P14-2],–,–
N,LIDLPGITR (listed as Homo sapiens) [Peptide P14-12],–,–
N,LPGITRV (listed as Homo sapiens) [Peptide P14-4],–,–
N,LPGMTKV (listed as Homo sapiens) [Peptide P13-4],–,–
N,LVLNLLEL (listed as Homo sapiens) [Peptide P3-1],–,–
N,PGITRV (listed as Homo sapiens) [Peptide P14-5],–,–
N,PGMTKV (listed as Homo sapiens) [Peptide P13-5],–,–
N,SLVLNLL (listed as Homo sapiens) [Peptide P3-5],–,–
N,SLVLNLLE (listed as Homo sapiens) [Peptide P3-4],–,–
N,TLIDLP (listed as Homo sapiens) [Peptide P14-10],–,–
N,TLIDLPGIT (listed as Homo sapiens) [Peptide P14-7],–,–
N,TLIDLPGITR (listed as Homo sapiens) [Peptide P14-6],–,–

# Reference: patent US8232101B2, “Identification of antigenic peptides from multiple myeloma cells” (Janssen Pharmaceutica N.V., priority 2009, dated 2012)
